Assay results reported in patent US20240417372A1, “ESTERS OF A RETINOID AND BAKUCHIOL AND PREPARATIONS THEREOF” (Conagen Inc., priority 2021, published 2024).

Experiments:
Type in all cases: cell-based
Settings in all cases: for Fold Activation: RLU vs DMSO, 23 hours
[1] = biological target: T1, RAR alpha (Homo sapiens, UniProt P10276); assay: RAR alpha Gal4-hybrid luciferase reporter cell agonist assay
T1 sequence (P10276 183-417 limits assumed): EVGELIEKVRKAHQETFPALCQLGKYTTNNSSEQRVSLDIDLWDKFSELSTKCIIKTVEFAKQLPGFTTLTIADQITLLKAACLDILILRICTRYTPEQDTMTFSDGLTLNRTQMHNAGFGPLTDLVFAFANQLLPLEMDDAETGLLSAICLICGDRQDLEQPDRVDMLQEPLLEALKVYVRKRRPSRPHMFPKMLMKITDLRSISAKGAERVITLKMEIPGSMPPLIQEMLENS
Procedure: (§1) Reporter Cells (Indigo Biosciences, catalog #IB02201, IB02101, IB00821) used in the assays express a receptor hybrid in which the native N-terminal DNA binding domain (DBD) has been replaced with that of the yeast Gal4 DBD. The reporter gene, firefly luciferase, is functionally linked to the Gal4 upstream activation sequence (UAS). Receptor assays were performed as described in Steps 1 to 3 below.
(§2) Step 1: A suspension of Reporter Cells was prepared in Cell Recovery Medium (CRM: containing charcoal-stripped FBS) and 100 μl of the Reporter Cell suspension was dispensed into wells of a white 96-well assay plate.
(§3) Step 2: Test and reference compound master stocks were prepared as solutions at 1,000× concentration’ in DMSO relative to the final treatment concentration. This intermediate stock was subsequently diluted directly into INDIGO Biosciences's Compound Screening Medium (CSM; containing charcoal-stripped FBS) to generate ‘2×-concentration’ treatment media. 100 μL of each prepared treatment medium was dispensed into duplicate assay wells pre-dispensed with a 100 μL suspension of Reporter Cells, thereby achieving the desired final treatment concentrations. The concentration of residual DMSO in all assay wells was 0.1% for the test and reference compounds. Assay plates were incubated at 37° C., 5% CO2 and ˜70% humidity for 23 hours. DMSO control was used to determine background activity. Retinoic acid was used with its EC100 concentration to show 100% activity of each receptor. Retinol was used as positive control.
(§4) Step 3: Following the incubation period, treatment media were discarded and 100 μL/well of Luciferase Detection Reagent was added per well to determine receptor activity in terms of relative luminescence units (RLUs). Data processing: fold activation: [Ave RLU Test Cmpd/Ave RLU DMSO].

[2] = biological target: T2, RAR beta (Homo sapiens, UniProt P10826); assay: RAR beta Gal4-hybrid luciferase reporter cell agonist assay
T2 sequence (P10826 183-417 limits assumed): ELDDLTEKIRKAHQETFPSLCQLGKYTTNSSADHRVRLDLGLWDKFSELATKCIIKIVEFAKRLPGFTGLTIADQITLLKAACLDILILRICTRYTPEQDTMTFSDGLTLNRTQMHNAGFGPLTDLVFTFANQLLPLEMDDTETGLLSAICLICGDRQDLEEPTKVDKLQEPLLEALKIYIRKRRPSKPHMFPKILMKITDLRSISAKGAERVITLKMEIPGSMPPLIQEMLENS
Procedure: as §1, §2, §3, §4

[3] = system: RAR gamma; assay: RAR gamma Gal4-hybrid luciferase reporter cell agonist assay
Procedure: as §1, §2, §3, §4

Row | Compound | Fold Activation ([1]; RAR alpha, 0.1 μM) | Fold Activation ([1]; RAR alpha, 1 μM) | Fold Activation ([2]; RAR beta, 0.1 μM) | Fold Activation ([2]; RAR beta, 1 μM) | Fold Activation ([3]; RAR gamma, 0.1 μM) | Fold Activation ([3]; RAR gamma, 1 μM) | Fold Activation ([3]; RAR gamma, 0.1 μM (EC100 concentration of retinoic acid)) | activity compared with retinol (in words) ([1]; RAR alpha, at 0.1 μm and 0.01 μm) | agonist activity towards RAR alpha (in words) ([1]; summary of Table 1) | activity compared with retinol (in words) ([2]; RAR beta, at 0.1 μm and 0.01 μm) | agonist activity towards RAR beta (in words) ([2]; summary of Table 1) | activity compared with retinol (in words) ([3]; RAR gamma, at 0.1 μm and 0.01 μm) | agonist activity towards RAR gamma (in words) ([3]; summary of Table 1)
1 | CC1=C(/C=C/C(C)=C/C=C/C(C)=C/CO)C(C)(C)CCC1 [Retinol, reference compound] | 6.35 | 518 | 4.91 | 127 | 18.5 | 368 |  |  |  |  |  |  | 
2 | CC1=C(/C=C/C(C)=C/C=C/C(C)=C/C(=O)O)C(C)(C)CCC1 [Retinoic acid, reference compound] |  |  |  |  |  |  | 706 |  |  |  |  |  | 
3 | C=C[C@](C)(/C=C/c1ccc(OC(=O)/C=C(C)/C=C/C=C(C)/C=C/C2=C(C)CCCC2(C)C)cc1)CCC=C(C)C [Bakuchoyl retinoate of Formula I] | 26.0 | 979 | 12.6 | 169 | 41.0 | 541 |  | more active than retinol | exhibited agonist activity | more active than retinol | exhibited agonist activity | more active than retinol | exhibited agonist activity
